Measured values reported in patent US7253281B2, “Anti-obesity 1,2,3,4,10,10a-hexahydropyrazino[1,2-a]indoles” (Hoffmann-La Roche Inc., priority 2000, dated 2007).

Experiments:
[1] = target: T1, 5-HT2C receptors in a CHO cell line (Homo sapiens, UniProt P28335); test: Binding to 5-HT2C receptor, [3H]-5-HT, Method (a); details: read-out: Ki (2C)
T1 construct: expressed in transfected cells; host or cells: CHO cell line
T1 sequence (P28335 33-458): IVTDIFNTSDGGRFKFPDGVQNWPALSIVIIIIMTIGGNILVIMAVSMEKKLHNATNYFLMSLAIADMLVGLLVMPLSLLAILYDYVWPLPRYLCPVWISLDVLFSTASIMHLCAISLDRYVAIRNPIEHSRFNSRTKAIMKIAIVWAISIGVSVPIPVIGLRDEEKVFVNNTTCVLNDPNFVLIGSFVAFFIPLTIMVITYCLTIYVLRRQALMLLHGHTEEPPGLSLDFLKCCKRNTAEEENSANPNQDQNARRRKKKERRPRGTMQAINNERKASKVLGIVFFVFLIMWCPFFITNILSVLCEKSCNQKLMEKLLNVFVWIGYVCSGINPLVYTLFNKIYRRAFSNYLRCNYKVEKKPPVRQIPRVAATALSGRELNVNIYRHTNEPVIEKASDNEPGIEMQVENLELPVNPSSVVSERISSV
Experimental: (§1) The binding of compounds of formula (I) to serotonin receptors was determined in vitro by standard methods. The preparations were investigated in accordance with the assays given hereinafter.
Method (a): For the binding to the 5-HT2C receptor the 5-HT2C receptors were radiolabeled with [^3H]-5-HT. The affinity of the compounds for 5-HT2C receptors in a CHO cell line was determined according to the procedure of D. Hoyer, G. Engel and H. O. Kalkman, European J. Pharmacol., 1985, 118, 13–23.

[2] = target: T2, human 5-HT2B receptors in a CHO cell line (Homo sapiens, UniProt P41595); test: Binding to 5-HT2B receptor, [3H]-5-HT, Method (b); details: read-out: Ki (2B)
T2 construct: expressed in transfected cells; host or cells: CHO cell line
T2 sequence (P41595 whole entry): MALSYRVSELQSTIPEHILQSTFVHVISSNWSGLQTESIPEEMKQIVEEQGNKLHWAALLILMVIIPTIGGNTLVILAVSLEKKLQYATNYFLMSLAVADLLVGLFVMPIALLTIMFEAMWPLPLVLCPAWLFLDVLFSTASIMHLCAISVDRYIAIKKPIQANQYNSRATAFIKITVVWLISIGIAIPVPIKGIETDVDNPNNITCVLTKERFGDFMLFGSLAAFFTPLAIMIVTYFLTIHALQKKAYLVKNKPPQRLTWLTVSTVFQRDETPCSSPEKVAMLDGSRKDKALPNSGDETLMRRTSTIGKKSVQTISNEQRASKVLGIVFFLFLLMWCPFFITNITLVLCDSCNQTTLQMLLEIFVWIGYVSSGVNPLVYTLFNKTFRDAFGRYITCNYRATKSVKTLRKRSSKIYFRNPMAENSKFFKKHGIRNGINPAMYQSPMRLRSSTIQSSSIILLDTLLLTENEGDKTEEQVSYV
Experimental: as §1
Method (b): For the binding to the 5-HT2B receptor the 5-HT2B receptors were radiolabeled with [^3H]-5-HT. The affinity of the compounds for human 5-HT2B receptors in a CHO cell line was determined according to the procedure of K. Schmuck, C. Ullmer, P. Engels and H. Lubbert, FEBS Lett., 1994, 342, 85–90.

[3] = target: T3, 5-HT2A receptors in a CHO cell line (Homo sapiens, UniProt P28223); test: Binding to 5-HT2A receptor, [125I]-DOI, Method (c); details: read-out: Ki (2A)
T3 construct: expressed in transfected cells; host or cells: CHO cell line
T3 sequence (P28223 whole entry): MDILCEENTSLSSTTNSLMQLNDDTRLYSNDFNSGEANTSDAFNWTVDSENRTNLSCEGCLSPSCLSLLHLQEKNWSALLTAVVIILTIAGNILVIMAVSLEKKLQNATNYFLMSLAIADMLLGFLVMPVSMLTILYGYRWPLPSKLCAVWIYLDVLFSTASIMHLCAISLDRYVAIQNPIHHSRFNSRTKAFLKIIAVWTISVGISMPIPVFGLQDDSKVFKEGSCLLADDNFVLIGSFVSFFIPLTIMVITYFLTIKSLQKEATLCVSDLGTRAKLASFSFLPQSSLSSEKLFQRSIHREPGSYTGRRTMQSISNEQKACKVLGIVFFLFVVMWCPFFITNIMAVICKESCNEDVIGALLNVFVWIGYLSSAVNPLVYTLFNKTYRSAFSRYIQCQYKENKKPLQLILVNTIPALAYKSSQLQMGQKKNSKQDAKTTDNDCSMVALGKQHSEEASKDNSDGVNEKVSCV
Experimental: as §1
Method (c): For the binding to the 5-HT2A receptor the 5-HT2A receptors were radiolabeled with [^125I]-DOI. The affinity of the compounds for 5-HT2A receptors in a CHO cell line was determined according to the procedure of D. J. McKenna and S. J. Peroutka, J. Neurosci., 1989, 9, 3482–90.

[4] = target: T4, human 5-HT2C receptor (CHO cells) (Homo sapiens, UniProt P28335); test: Functional activity, FLIPR calcium assay, h5-HT2C; type: cell-based
T4 construct: expressed in transfected cells; host or cells: CHO cells
T4 sequence (P28335 33-458): T1 sequence (P28335 33-458)
Experimental: (§2) The functional activity of compounds of formula (I) was assayed using a Fluorimetric Imaging Plate reader (FLIPR). CHO cells expressing the human 5-HT2C or human 5-HT2A receptors were counted and plated into standard 96 well microtitre plates on the day before testing to give a confluent monolayer. The cells were then dye loaded with the calcium sensitive dye, Fluo-3-AM. Unincorporated dye was removed using an automated cell washer to leave a total volume of 100 μL/well of assay buffer (Hanks balanced salt solution containing 20 mM Hepes and 2.5 mM probenecid). The drug (dissolved in 50 μL of the assay buffer) was added at a rate of 70 μL/sec to each well of the FLIPR 96 well plate during fluorescence measurements. The measurements were taken at 1 sec intervals and the maximum fluorescent signal was measured (approx 10–15 secs after drug addition) and compared with the response produced by 10 μM 5-HT (defined as 100%) to which it was expressed as a percentage response (relative efficacy). Dose response curves were constructed using Graphpad Prism (Graph Software Inc.).

[5] = target: T5, human 5-HT2A receptor (CHO cells) (Homo sapiens, UniProt P28223); test: Functional activity, FLIPR calcium assay, h5-HT2A; type: cell-based
T5 construct: expressed in transfected cells; host or cells: CHO cells
T5 sequence (P28223 whole entry): as above
Experimental: as §2

h5-HT2B = h5-HT2B (Homo sapiens, UniProt P41595); test: Functional activity, FLIPR calcium assay, h5-HT2B; type: cell-based
Sequence of h5-HT2B (P41595 whole entry): as the sequence (P41595 whole entry) above

[6] = relative to response of 10 μM 5-HT (100%)

## C[C@@H]1CNC[C@H]2Cc3ccc(C(F)(F)F)cc3N21.Cl
other
  melting point: 221 to 224 °C

## C[C@@H]1CNC[C@@H]2Cc3ccc(C(F)(F)F)cc3N21.Cl
other
  melting point: 245 to 250 °C (dec.)

## Cc1cc2c(cc1C(F)(F)F)N1[C@H](CNC[C@H]1C)C2.Cl
other
  melting point: 200 to 205 °C

## CC(=O)Nc1ccc2c(c1)N1[C@@H](CNC[C@H]1C)C2.Cl
other
  melting point: > 250 °C (dec.)

## C[C@@H]1CNC[C@H]2Cc3ccc(CO)cc3N21.Cl
other
  melting point: 66 °C (dec.)

## CCCCNC(=O)c1ccc2c(c1)N1[C@@H](CNC[C@H]1C)C2.Cl
other
  melting point: 125 °C (dec.)

## O=C1OCCN1CN1CCN2c3cccc(Br)c3C[C@@H]2C1 [Example 3, (10aR)-3-(9-Bromo-3,4,10,10a-tetrahydro-1H-pyrazino[1,2-a]indol-2-ylmethyl)-oxazolidin-2-one]
[1]
  Ki: 0.026 µM
[2]
  Ki: 0.11 µM
[3]
  Ki: 0.23 µM

## C[C@@H]1CNC[C@H]2Cc3ccc(Cl)cc3N21 [Example 8, (4R,10aR)-7-Chloro-4-methyl-1,2,3,4,10,10a-hexahydro-pyrazino[1,2-a]indole]
[4]; FLIPR, CHO cells
  EC50: 0.0004 µM
[4]; [6]
  h5-HT2c Relative Efficacy (%): 97%
[5]; FLIPR, CHO cells
  EC50: 0.019 µM
[5]; [6]
  h5-HT2A Relative Efficacy (%): 60%
h5-HT2B; FLIPR
  EC50: 0.0034 µM
h5-HT2B; [6]
  h5-HT2B Relative Efficacy (%): 62%
